Measurements published in ChEMBL document CHEMBL3994622, “Design and synthesis of new RAF kinase-inhibiting antiproliferative quinoline derivatives. Part 2: Diarylurea derivatives” (Eur J Med Chem, 2017).

How the values were obtained:
Format in all cases: functional
OVCAR-8 = experiment: Growth inhibition of human OVCAR8 cells assessed as cell growth at 10 uM incubated for 48 hrs by sulforhodamine B assay relative to control; settings: OVCAR-8, 48 h, read-out: Activity
PC-3 [1] = experiment: Growth inhibition of human PC3 cells assessed as cell growth at 10 uM incubated for 48 hrs by sulforhodamine B assay relative to control; settings: PC-3, 48 h, read-out: Activity
ACHN = experiment: Growth inhibition of human ACHN cells assessed as cell growth at 10 uM incubated for 48 hrs by sulforhodamine B assay relative to control; settings: read-out: Activity
OVCAR-4 = experiment: Growth inhibition of human OVCAR4 cells incubated for 48 hrs by sulforhodamine B assay; settings: OVCAR-4, 48 h; for CC50: read-out: LC50 (the source's name)
786-0 [2] = experiment: Growth inhibition of human 786-0 cells assessed as cell growth at 10 uM incubated for 48 hrs by sulforhodamine B assay relative to control; settings: 786-0, 48 h, read-out: Activity
MCF7 = experiment: Growth inhibition of human MCF7 cells assessed as cell growth at 10 uM incubated for 48 hrs by sulforhodamine B assay relative to control; settings: MCF7, 48 h, read-out: Activity
M14 = experiment: Growth inhibition of human M14 cells assessed as cell growth at 10 uM incubated for 48 hrs by sulforhodamine B assay relative to control; settings: M14, 48 h, read-out: Activity
LOX IMVI = experiment: Growth inhibition of human LOXIMVI cells assessed as cell growth at 10 uM incubated for 48 hrs by sulforhodamine B assay relative to control; settings: read-out: Activity
SW-620 = experiment: Growth inhibition of human SW620 cells assessed as cell growth at 10 uM incubated for 48 hrs by sulforhodamine B assay relative to control; settings: SW-620, 48 h, read-out: Activity
HCC 2998 = experiment: Growth inhibition of human HCC2998 cells incubated for 48 hrs by sulforhodamine B assay; settings: HCC 2998, 48 h; for CC50: read-out: LC50 (the source's name)
UO-31 [3] = experiment: Growth inhibition of human UO31 cells incubated for 48 hrs by sulforhodamine B assay; settings: UO-31, 48 h; for CC50: read-out: LC50 (the source's name)
SK-MEL-2 = experiment: Growth inhibition of human SK-MEL-2 cells assessed as cell growth at 10 uM incubated for 48 hrs by sulforhodamine B assay relative to control; settings: SK-MEL-2, 48 h, read-out: Activity
SN12C = experiment: Growth inhibition of human SN12C cells assessed as cell growth at 10 uM incubated for 48 hrs by sulforhodamine B assay relative to control; settings: read-out: Activity
CCRF-CEM [4] = experiment: Growth inhibition of human CCRF-CEM cells assessed as cell growth at 10 uM incubated for 48 hrs by sulforhodamine B assay relative to control; settings: read-out: Activity
OVCAR-5 = experiment: Growth inhibition of human OVCAR5 cells assessed as cell growth at 10 uM incubated for 48 hrs by sulforhodamine B assay relative to control; settings: OVCAR-5, 48 h, read-out: Activity
SK-OV-3 = experiment: Growth inhibition of human SKOV3 cells assessed as cell growth at 10 uM incubated for 48 hrs by sulforhodamine B assay relative to control; settings: SK-OV-3, 48 h, read-out: Activity
NCI-H226 = experiment: Growth inhibition of human NCI-H226 cells assessed as cell growth at 10 uM incubated for 48 hrs by sulforhodamine B assay relative to control; settings: NCI-H226, 48 h, read-out: Activity
SR = experiment: Growth inhibition of human SR cells assessed as cell growth at 10 uM incubated for 48 hrs by sulforhodamine B assay relative to control; settings: read-out: Activity
SF-539 = experiment: Growth inhibition of human SF539 cells assessed as cell growth at 10 uM incubated for 48 hrs by sulforhodamine B assay relative to control; settings: SF-539, 48 h, read-out: Activity
SNB-19 = experiment: Growth inhibition of human SNB19 cells assessed as cell growth at 10 uM incubated for 48 hrs by sulforhodamine B assay relative to control; settings: SNB-19, 48 h, read-out: Activity
HT-29 = experiment: Growth inhibition of human HT-29 cells assessed as cell growth at 10 uM incubated for 48 hrs by sulforhodamine B assay relative to control; settings: HT-29, 48 h, read-out: Activity
K562 = experiment: Growth inhibition of human K562 cells assessed as cell growth at 10 uM incubated for 48 hrs by sulforhodamine B assay relative to control; settings: K562, 48 h, read-out: Activity
DU-145 = experiment: Growth inhibition of human DU145 cells assessed as cell growth at 10 uM incubated for 48 hrs by sulforhodamine B assay relative to control; settings: DU-145, 48 h, read-out: Activity
IGROV-1 = experiment: Growth inhibition of human IGROV1 cells assessed as cell growth at 10 uM incubated for 48 hrs by sulforhodamine B assay relative to control; settings: IGROV-1, 48 h, read-out: Activity
EKVX = experiment: Growth inhibition of human EKVX cells assessed as cell growth at 10 uM incubated for 48 hrs by sulforhodamine B assay relative to control; settings: read-out: Activity
786-0 [5] = experiment: Growth inhibition of human 786-0 cells incubated for 48 hrs by sulforhodamine B assay; settings: 786-0, 48 h; for CC50: read-out: LC50 (the source's name)
CCRF-CEM [6] = experiment: Growth inhibition of human CCRF-CEM cells incubated for 48 hrs by sulforhodamine B assay
NCI-H23 = experiment: Growth inhibition of human NCI-H23 cells incubated for 48 hrs by sulforhodamine B assay; settings: NCI-H23, 48 h; for CC50: read-out: LC50 (the source's name)
Hs-578T = experiment: Growth inhibition of human Hs 578T cells assessed as cell growth at 10 uM incubated for 48 hrs by sulforhodamine B assay relative to control; settings: read-out: Activity
HOP-92 = experiment: Growth inhibition of human HOP92 cells assessed as cell growth at 10 uM incubated for 48 hrs by sulforhodamine B assay relative to control; settings: HOP-92, 48 h, read-out: Activity
HL-60(TB) = experiment: Growth inhibition of human HL-60(TB) cells incubated for 48 hrs by sulforhodamine B assay; settings: HL-60, 48 h; for CC50: read-out: LC50 (the source's name)
PC-3 [7] = experiment: Growth inhibition of human PC3 cells incubated for 48 hrs by sulforhodamine B assay; settings: PC-3, 48 h; for CC50: read-out: LC50 (the source's name)
SK-MEL-28 = experiment: Growth inhibition of human SK-MEL-28 cells assessed as cell growth at 10 uM incubated for 48 hrs by sulforhodamine B assay relative to control; settings: SK-MEL-28, 48 h, read-out: Activity
UO-31 [8] = experiment: Growth inhibition of human UO31 cells assessed as cell growth at 10 uM incubated for 48 hrs by sulforhodamine B assay relative to control; settings: UO-31, 48 h, read-out: Activity

## COc1cc2cc(Oc3ccc(NC(=O)Nc4ccc(Cl)c(Cl)c4)cc3)c(C)nc2cc1OC
OVCAR-8
  growth at 10 µM: 15%
PC-3 [1]
  growth at 10 µM: 4.12%
ACHN
  growth at 10 µM: 16.4%
OVCAR-4
  GI50: 2.67 µM
  TGI: 8.3 µM
  CC50: 35.2 µM
786-0 [2]
  growth at 10 µM: 20.3%
MCF7
  growth at 10 µM: 13.8%
M14
  growth at 10 µM: 25.8%
LOX IMVI
  growth at 10 µM: 23.1%
SW-620
  growth at 10 µM: 23.4%
HCC 2998
  GI50: 5.54 µM
  TGI: > 100 µM
  CC50: > 100 µM
UO-31 [3]
  GI50: 3.44 µM
  TGI: 12.6 µM
  CC50: 79.6 µM
SK-MEL-2
  growth at 10 µM: -7.82%
SN12C
  growth at 10 µM: 22.1%
CCRF-CEM [4]
  growth at 10 µM: 13.3%
OVCAR-5
  growth at 10 µM: 53%
SK-OV-3
  growth at 10 µM: 28.6%
NCI-H226
  growth at 10 µM: 7.74%
SR
  growth at 10 µM: 18%
SF-539
  growth at 10 µM: 38.5%
SNB-19
  growth at 10 µM: 28.6%
HT-29
  growth at 10 µM: 10.9%
K562
  growth at 10 µM: 12.7%
DU-145
  growth at 10 µM: 24.8%
IGROV-1
  growth at 10 µM: 18.6%
EKVX
  growth at 10 µM: 21%
786-0 [5]
  GI50: 3.64 µM
  TGI: 17.7 µM
  CC50: 65.2 µM
CCRF-CEM [6]
  GI50: 2.38 µM
  TGI: 14 µM
CCRF-CEM [6]; read-out: LC50 (the source's name)
  CC50: > 100 µM
NCI-H23
  GI50: 3.36 µM
  TGI: 15.9 µM
  CC50: 76.3 µM
Hs-578T
  growth at 10 µM: 45.1%
HOP-92
  growth at 10 µM: -9.31%
HL-60(TB)
  GI50: 2.76 µM
  TGI: 6.75 µM
  CC50: > 100 µM
PC-3 [7]
  GI50: 1.53 µM
  TGI: 5.13 µM
  CC50: 21.3 µM
SK-MEL-28
  growth at 10 µM: 44.6%
UO-31 [8]
  growth at 10 µM: 3.69%

## COc1cc2cc(Oc3ccc(NC(=O)Nc4cccc(C(F)(F)F)c4)cc3)c(C)nc2cc1OC
OVCAR-8
  growth at 10 µM: 8.32%
PC-3 [1]
  growth at 10 µM: 0.08%
ACHN
  growth at 10 µM: 11.2%
OVCAR-4
  GI50: 2.3 µM
  TGI: 9.7 µM
  CC50: 36 µM
786-0 [2]
  growth at 10 µM: 15.1%
MCF7
  growth at 10 µM: 6.81%
M14
  growth at 10 µM: 22.6%
LOX IMVI
  growth at 10 µM: 9.78%
SW-620
  growth at 10 µM: 17.5%
HCC 2998
  GI50: 2.59 µM
  TGI: > 50 µM
  CC50: > 50 µM
UO-31 [3]
  GI50: 1.98 µM
  TGI: 10.8 µM
  CC50: > 50 µM
SK-MEL-2
  growth at 10 µM: -35.8%
SN12C
  growth at 10 µM: 17.2%
CCRF-CEM [4]
  growth at 10 µM: 6.41%
OVCAR-5
  growth at 10 µM: 27.8%
SK-OV-3
  growth at 10 µM: 3.35%
NCI-H226
  growth at 10 µM: -23.5%
SR
  growth at 10 µM: -6.62%
SF-539
  growth at 10 µM: 11.7%
SNB-19
  growth at 10 µM: 31.4%
HT-29
  growth at 10 µM: 6.56%
K562
  growth at 10 µM: 11.5%
DU-145
  growth at 10 µM: 26.7%
IGROV-1
  growth at 10 µM: 8.77%
EKVX
  growth at 10 µM: 15.4%
786-0 [5]
  GI50: 1.74 µM
  TGI: 9.24 µM
  CC50: > 50 µM
NCI-H23
  GI50: 1.7 µM
  TGI: 7.41 µM
  CC50: > 50 µM
Hs-578T
  growth at 10 µM: 22.6%
HOP-92
  growth at 10 µM: -29.5%
HL-60(TB)
  GI50: 1.56 µM
  TGI: 3.91 µM
  CC50: > 50 µM
PC-3 [7]
  GI50: 1.39 µM
  TGI: 5.49 µM
  CC50: 30.4 µM
SK-MEL-28
  growth at 10 µM: 26.7%
UO-31 [8]
  growth at 10 µM: 11.3%

## COc1cc2cc(Sc3ccc(NC(=O)Nc4ccc(Cl)c(Cl)c4)cc3)c(C)nc2cc1OC
OVCAR-8
  growth at 10 µM: 83.6%
PC-3 [1]
  growth at 10 µM: 56.1%
ACHN
  growth at 10 µM: 72.6%
786-0 [2]
  growth at 10 µM: 73.4%
MCF7
  growth at 10 µM: 75.3%
M14
  growth at 10 µM: 81.3%
LOX IMVI
  growth at 10 µM: 94.7%
SW-620
  growth at 10 µM: 89.9%
SK-MEL-2
  growth at 10 µM: 72.6%
SN12C
  growth at 10 µM: 78.8%
CCRF-CEM [4]
  growth at 10 µM: 50.7%
OVCAR-5
  growth at 10 µM: 84.7%
SK-OV-3
  growth at 10 µM: 55%
NCI-H226
  growth at 10 µM: 90.9%
SR
  growth at 10 µM: 52.7%
SF-539
  growth at 10 µM: 86%
SNB-19
  growth at 10 µM: 84.9%
HT-29
  growth at 10 µM: 91.9%
K562
  growth at 10 µM: 52.5%
DU-145
  growth at 10 µM: 75.5%
IGROV-1
  growth at 10 µM: 75.3%
EKVX
  growth at 10 µM: 69.4%
Hs-578T
  growth at 10 µM: 85.6%
HOP-92
  growth at 10 µM: 71.2%
SK-MEL-28
  growth at 10 µM: 96.5%
UO-31 [8]
  growth at 10 µM: 62.8%
